Key:
GnRH/LHRH = GnRH/LHRH (Homo sapiens, UniProt P30968); test: GPCR cell-based functional assay, Safety and Liability Panel; settings: read-out: Percentage inhibition
PTH1 = PTH1 (Homo sapiens, UniProt Q03431); test: as above; settings: read-out: Percentage inhibition
FPR1 = FPR1 (Homo sapiens, UniProt P21462); test: as above; settings: read-out: Percentage inhibition
DP = DP (Homo sapiens, UniProt Q13258); test: as above; settings: read-out: Percentage inhibition
H1 = H1 (Homo sapiens, UniProt P35367); test: as above; settings: read-out: Percentage inhibition
CB2 = CB2 (Homo sapiens, UniProt P34972); test: as above; settings: read-out: Percentage inhibition
OPRM1 = OPRM1 (Homo sapiens, UniProt P35372); test: as above; settings: OPRM1, read-out: Percentage inhibition
CRF1 = CRF1 (Homo sapiens, UniProt P34998); test: as above; settings: read-out: Percentage inhibition
D1 = D1 (Homo sapiens, UniProt P21728); test: as above; settings: read-out: Percentage inhibition
5-HT2B = 5-HT2B (Homo sapiens, UniProt P41595); test: as above; settings: read-out: Percentage inhibition
Beta 1 = Beta 1 (Homo sapiens, UniProt P08588); test: as above; settings: read-out: Percentage inhibition
H2 = H2 (Homo sapiens, UniProt P25021); test: as above; settings: read-out: Percentage inhibition
OPRD1 = OPRD1 (Homo sapiens, UniProt P41143); test: as above; settings: read-out: Percentage inhibition
S1P3 = S1P3 (Homo sapiens, UniProt Q99500); test: as above; settings: read-out: Percentage inhibition
OPRK1 = OPRK1 (Homo sapiens, UniProt P41145); test: as above; settings: read-out: Percentage inhibition
PRP = PRP (Homo sapiens, UniProt P49683); test: as above; settings: read-out: Percentage inhibition
A1 = A1 (Homo sapiens, UniProt P30542); test: as above; settings: read-out: Percentage inhibition
TSH = TSH (Homo sapiens, UniProt P16473); test: as above; settings: read-out: Percentage inhibition
PAF = PAF (Homo sapiens, UniProt P25105); test: as above; settings: read-out: Percentage inhibition
AT1 = AT1 (Homo sapiens, UniProt P30556); test: as above; settings: read-out: Percentage inhibition
BB2 = BB2 (Homo sapiens, UniProt P30550); test: as above; settings: read-out: Percentage inhibition
Alpha1A = Alpha1A (Homo sapiens, UniProt P35348); test: as above; settings: read-out: Percentage inhibition
Trypsin-mediated PARs = test: as above; parameters: species or system human; settings: 10 μM BIRB0796
CGRP1 = CGRP1 (Homo sapiens, UniProt O60894+Q16602); test: as above; settings: read-out: Percentage inhibition
5-HT2C = 5-HT2C (Homo sapiens, UniProt P28335); test: as above; settings: read-out: Percentage inhibition
C5aR = C5aR (Homo sapiens, UniProt P21730); test: as above; settings: read-out: Percentage inhibition
V1A = V1A (Homo sapiens, UniProt P37288); test: as above; settings: read-out: Percentage inhibition
TP = TP (Homo sapiens, UniProt P21731); test: as above; settings: read-out: Percentage inhibition
Motilin receptor = Motilin receptor (Homo sapiens, UniProt O43193); test: as above; settings: read-out: Percentage inhibition
M2 = M2 (Homo sapiens, UniProt P08172); test: as above; settings: read-out: Percentage inhibition
M1 = M1 (Homo sapiens, UniProt P11229); test: as above; settings: read-out: Percentage inhibition
CB1 = CB1 (Homo sapiens, UniProt P21554); test: as above; settings: read-out: Percentage inhibition
NTR1 = NTR1 (Homo sapiens, UniProt P30989); test: as above; settings: read-out: Percentage inhibition
BLT1 = BLT1 (Homo sapiens, UniProt Q15722); test: as above; settings: read-out: Percentage inhibition
UT/GPR14 = UT/GPR14 (Homo sapiens, UniProt Q9UKP6); test: as above; settings: read-out: Percentage inhibition
EP3 = EP3 (Homo sapiens, UniProt P43115); test: as above; settings: read-out: Percentage inhibition
H3 = H3 (Homo sapiens, UniProt Q9Y5N1); test: as above; settings: read-out: Percentage inhibition
P2Y1 = P2Y1 (Homo sapiens, UniProt P47900); test: as above; settings: read-out: Percentage inhibition
D2L = D2L (Homo sapiens, UniProt P14416); test: as above; settings: read-out: Percentage inhibition
Y2 = Y2 (Homo sapiens, UniProt P49146); test: as above; settings: read-out: Percentage inhibition
A3 = A3 (Homo sapiens, UniProt P0DMS8); test: as above; settings: read-out: Percentage inhibition
ETB = ETB (Homo sapiens, UniProt P24530); test: as above; settings: read-out: Percentage inhibition
CX3CR1 = CX3CR1 (Homo sapiens, UniProt P49238); test: as above; settings: read-out: Percentage inhibition
NK1 = NK1 (Homo sapiens, UniProt P25103); test: as above; settings: read-out: Percentage inhibition
EP2 = EP2 (Homo sapiens, UniProt P43116); test: as above; settings: read-out: Percentage inhibition
PK1 = PK1 (Homo sapiens, UniProt Q8TCW9); test: as above; settings: PK-1, read-out: Percentage inhibition
Beta 2 = Beta 2 (Homo sapiens, UniProt P07550); test: as above; settings: read-out: Percentage inhibition
Alpha1D = Alpha1D (Homo sapiens, UniProt P25100); test: as above; settings: read-out: Percentage inhibition
CysLT1 = CysLT1 (Homo sapiens, UniProt Q9Y271); test: as above; settings: read-out: Percentage inhibition
OT = OT (Homo sapiens, UniProt P30559); test: as above; settings: read-out: Percentage inhibition
D5 = D5 (Homo sapiens, UniProt P21918); test: as above; settings: read-out: Percentage inhibition
Alpha2A = Alpha2A (Homo sapiens, UniProt P08913); test: as above; settings: read-out: Percentage inhibition
OX1 = OX1 (Homo sapiens, UniProt O43613); test: as above; settings: read-out: Percentage inhibition
CCK2 = CCK2 (Homo sapiens, UniProt P32239); test: as above; settings: read-out: Percentage inhibition
SST4 = SST4 (Homo sapiens, UniProt P31391); test: as above; settings: read-out: Percentage inhibition
NK3 = NK3 (Homo sapiens, UniProt P29371); test: as above; settings: read-out: Percentage inhibition
MC5 = MC5 (Homo sapiens, UniProt P33032); test: as above; settings: read-out: Percentage inhibition
CCR2B = CCR2B (Homo sapiens, UniProt P41597); test: as above; settings: read-out: Percentage inhibition
IP1 = IP1 (Homo sapiens, UniProt P43119); test: as above; settings: read-out: Percentage inhibition
GPR109A = GPR109A (Homo sapiens, UniProt Q8TDS4); test: as above; settings: read-out: Percentage inhibition
V2 = V2 (Homo sapiens, UniProt P30518); test: as above; settings: read-out: Percentage inhibition
GAL1 = GAL1 (Homo sapiens, UniProt P47211); test: as above; settings: read-out: Percentage inhibition
ETA = ETA (Homo sapiens, UniProt P25101); test: as above; settings: read-out: Percentage inhibition
CXCR1 = CXCR1 (Homo sapiens, UniProt P25024); test: as above; settings: read-out: Percentage inhibition
5-HT2A = 5-HT2A (Homo sapiens, UniProt P28223); test: as above; settings: read-out: Percentage inhibition
FP = FP (Homo sapiens, UniProt P43088); test: as above; settings: read-out: Percentage inhibition
B2 = B2 (Homo sapiens, UniProt P30411); test: as above; settings: read-out: Percentage inhibition
LPA1 = LPA1 (Homo sapiens, UniProt Q92633); test: as above; settings: read-out: Percentage inhibition
5-HT1A = 5-HT1A (Homo sapiens, UniProt P08908); test: as above; settings: read-out: Percentage inhibition
VPAC2 = VPAC2 (Homo sapiens, UniProt P41587); test: as above; settings: read-out: Percentage inhibition
Kv1.5 = Kv1.5 (Homo sapiens, UniProt P22460); test: Cardiac ion channel functional assay, Safety and Liability Panel; assay type: cell-based
NMU1 = NMU1 (Homo sapiens, UniProt Q9HB89); test: GPCR cell-based functional assay, Safety and Liability Panel; settings: read-out: Percentage inhibition
CCR1 = CCR1 (Homo sapiens, UniProt P32246); test: as above; settings: read-out: Percentage inhibition
PAC1 long isoform = test: as above; parameters: species or system human; settings: 10 μM BIRB0796
VPAC1 = VPAC1 (Homo sapiens, UniProt P32241); test: as above; settings: read-out: Percentage inhibition
M3 = M3 (Homo sapiens, UniProt P20309); test: as above; settings: read-out: Percentage inhibition
LPA3 = LPA3 (Homo sapiens, UniProt Q9UBY5); test: as above; settings: read-out: Percentage inhibition
hERG = hERG (Homo sapiens, UniProt Q12809); test: in vitro

Sequence of UT/GPR14 (Q9UKP6 whole entry): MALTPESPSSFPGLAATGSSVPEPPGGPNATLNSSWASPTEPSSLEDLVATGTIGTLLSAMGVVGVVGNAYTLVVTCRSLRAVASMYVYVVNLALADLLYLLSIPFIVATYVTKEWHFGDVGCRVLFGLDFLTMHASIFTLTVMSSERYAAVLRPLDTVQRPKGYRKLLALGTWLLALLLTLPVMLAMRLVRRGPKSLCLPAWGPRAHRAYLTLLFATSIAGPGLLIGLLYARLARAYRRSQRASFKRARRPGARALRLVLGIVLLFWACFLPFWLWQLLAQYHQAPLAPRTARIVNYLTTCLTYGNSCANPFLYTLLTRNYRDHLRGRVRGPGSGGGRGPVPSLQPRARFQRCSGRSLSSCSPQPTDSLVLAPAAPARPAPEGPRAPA
Sequence of D2L (P14416 whole entry): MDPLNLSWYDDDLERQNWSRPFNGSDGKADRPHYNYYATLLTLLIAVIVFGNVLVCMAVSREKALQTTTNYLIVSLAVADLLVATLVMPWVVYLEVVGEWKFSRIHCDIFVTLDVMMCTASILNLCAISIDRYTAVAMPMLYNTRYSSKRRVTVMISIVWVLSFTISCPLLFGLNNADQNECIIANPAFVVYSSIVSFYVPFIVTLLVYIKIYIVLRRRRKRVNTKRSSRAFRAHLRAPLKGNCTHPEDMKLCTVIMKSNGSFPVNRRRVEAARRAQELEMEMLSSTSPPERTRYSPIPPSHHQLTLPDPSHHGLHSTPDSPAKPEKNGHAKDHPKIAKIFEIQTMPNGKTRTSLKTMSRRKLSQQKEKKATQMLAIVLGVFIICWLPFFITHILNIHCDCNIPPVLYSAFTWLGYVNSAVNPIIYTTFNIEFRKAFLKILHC
Sequence of FP (P43088 whole entry): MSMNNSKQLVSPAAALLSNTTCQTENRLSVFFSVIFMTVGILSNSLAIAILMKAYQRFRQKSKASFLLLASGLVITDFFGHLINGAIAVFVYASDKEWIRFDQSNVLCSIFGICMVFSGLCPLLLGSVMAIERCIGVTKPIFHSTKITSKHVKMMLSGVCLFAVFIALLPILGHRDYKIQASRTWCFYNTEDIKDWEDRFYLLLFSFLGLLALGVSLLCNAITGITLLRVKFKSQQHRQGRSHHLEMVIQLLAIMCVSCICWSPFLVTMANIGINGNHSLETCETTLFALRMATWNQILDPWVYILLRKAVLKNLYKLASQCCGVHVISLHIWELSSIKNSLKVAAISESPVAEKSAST
Sequence of NMU1 (Q9HB89 whole entry): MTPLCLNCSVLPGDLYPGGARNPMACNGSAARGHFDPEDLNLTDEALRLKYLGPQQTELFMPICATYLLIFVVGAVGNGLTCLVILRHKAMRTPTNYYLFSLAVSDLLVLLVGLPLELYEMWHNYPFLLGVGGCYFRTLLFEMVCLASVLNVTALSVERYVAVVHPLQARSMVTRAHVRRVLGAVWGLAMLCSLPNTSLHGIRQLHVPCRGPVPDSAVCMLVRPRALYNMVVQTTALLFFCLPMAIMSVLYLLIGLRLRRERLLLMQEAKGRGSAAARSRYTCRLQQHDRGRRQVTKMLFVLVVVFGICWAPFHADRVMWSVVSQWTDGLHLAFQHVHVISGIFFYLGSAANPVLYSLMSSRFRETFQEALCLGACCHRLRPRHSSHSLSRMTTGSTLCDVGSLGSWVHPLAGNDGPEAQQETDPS
Sequence of Kv1.5 (P22460 whole entry): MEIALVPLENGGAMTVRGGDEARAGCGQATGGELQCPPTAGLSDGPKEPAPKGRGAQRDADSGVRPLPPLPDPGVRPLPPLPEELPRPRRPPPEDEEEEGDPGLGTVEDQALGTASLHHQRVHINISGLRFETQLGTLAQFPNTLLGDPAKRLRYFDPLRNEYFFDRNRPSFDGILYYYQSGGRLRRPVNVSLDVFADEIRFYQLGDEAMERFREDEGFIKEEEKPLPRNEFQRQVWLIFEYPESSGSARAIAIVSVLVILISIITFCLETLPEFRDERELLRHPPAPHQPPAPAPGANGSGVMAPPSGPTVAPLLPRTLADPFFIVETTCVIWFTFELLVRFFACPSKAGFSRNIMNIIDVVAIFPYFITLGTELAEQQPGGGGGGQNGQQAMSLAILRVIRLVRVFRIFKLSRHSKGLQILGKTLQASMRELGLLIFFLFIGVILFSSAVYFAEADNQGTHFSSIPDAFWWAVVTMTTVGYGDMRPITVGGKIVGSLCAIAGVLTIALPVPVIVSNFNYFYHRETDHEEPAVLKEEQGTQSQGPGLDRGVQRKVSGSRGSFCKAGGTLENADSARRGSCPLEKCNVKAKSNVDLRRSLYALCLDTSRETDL
Sequence of Motilin receptor (O43193 whole entry): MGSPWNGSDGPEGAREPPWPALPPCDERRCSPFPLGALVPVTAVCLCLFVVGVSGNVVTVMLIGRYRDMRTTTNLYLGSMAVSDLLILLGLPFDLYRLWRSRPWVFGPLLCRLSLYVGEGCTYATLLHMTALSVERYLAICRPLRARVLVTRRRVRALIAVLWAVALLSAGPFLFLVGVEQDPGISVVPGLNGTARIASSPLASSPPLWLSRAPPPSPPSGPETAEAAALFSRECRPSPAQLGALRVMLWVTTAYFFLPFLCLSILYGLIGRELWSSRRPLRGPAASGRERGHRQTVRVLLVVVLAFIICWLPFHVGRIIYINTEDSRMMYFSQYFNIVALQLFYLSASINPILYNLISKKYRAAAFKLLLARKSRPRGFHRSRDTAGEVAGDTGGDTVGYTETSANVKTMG
Sequence of H2 (P25021 whole entry): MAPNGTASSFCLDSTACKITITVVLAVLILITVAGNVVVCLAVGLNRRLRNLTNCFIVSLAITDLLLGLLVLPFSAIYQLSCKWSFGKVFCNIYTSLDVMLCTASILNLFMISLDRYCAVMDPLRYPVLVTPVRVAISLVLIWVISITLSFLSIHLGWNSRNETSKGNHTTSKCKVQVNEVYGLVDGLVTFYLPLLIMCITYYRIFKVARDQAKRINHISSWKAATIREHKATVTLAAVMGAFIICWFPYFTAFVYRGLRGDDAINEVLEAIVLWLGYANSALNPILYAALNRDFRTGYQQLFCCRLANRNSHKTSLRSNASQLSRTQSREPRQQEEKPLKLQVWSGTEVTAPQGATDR
Sequence of EP3 (P43115 whole entry): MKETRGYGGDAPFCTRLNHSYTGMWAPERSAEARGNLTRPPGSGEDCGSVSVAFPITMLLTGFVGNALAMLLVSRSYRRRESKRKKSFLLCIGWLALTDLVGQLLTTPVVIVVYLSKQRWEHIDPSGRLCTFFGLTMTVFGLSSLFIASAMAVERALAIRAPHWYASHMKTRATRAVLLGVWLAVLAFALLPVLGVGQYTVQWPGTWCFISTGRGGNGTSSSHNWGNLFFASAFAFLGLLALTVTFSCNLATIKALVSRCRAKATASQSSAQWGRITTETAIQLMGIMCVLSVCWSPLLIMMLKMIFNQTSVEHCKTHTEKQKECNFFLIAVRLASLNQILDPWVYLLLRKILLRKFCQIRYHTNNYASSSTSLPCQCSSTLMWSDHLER
Sequence of MC5 (P33032 whole entry): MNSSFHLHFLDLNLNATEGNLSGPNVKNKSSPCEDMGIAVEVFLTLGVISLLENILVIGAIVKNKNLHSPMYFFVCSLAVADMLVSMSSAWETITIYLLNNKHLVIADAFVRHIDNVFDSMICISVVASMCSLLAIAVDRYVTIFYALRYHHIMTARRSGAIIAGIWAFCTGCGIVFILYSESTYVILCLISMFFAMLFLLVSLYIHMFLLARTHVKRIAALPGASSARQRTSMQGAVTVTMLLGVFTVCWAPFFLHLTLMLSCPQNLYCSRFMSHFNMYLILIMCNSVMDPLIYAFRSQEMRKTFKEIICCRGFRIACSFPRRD
Sequence of NK1 (P25103 whole entry): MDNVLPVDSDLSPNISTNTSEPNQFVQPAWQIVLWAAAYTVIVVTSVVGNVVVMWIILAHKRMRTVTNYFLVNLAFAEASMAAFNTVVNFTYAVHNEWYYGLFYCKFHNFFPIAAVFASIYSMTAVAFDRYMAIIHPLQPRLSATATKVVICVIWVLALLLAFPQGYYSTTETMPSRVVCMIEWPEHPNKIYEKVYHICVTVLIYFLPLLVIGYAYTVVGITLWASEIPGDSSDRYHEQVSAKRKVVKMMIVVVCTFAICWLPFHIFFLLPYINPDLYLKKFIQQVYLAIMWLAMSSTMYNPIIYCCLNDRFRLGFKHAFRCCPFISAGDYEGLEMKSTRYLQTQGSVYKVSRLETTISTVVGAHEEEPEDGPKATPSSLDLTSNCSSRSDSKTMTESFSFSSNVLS
Sequence of BLT1 (Q15722 whole entry): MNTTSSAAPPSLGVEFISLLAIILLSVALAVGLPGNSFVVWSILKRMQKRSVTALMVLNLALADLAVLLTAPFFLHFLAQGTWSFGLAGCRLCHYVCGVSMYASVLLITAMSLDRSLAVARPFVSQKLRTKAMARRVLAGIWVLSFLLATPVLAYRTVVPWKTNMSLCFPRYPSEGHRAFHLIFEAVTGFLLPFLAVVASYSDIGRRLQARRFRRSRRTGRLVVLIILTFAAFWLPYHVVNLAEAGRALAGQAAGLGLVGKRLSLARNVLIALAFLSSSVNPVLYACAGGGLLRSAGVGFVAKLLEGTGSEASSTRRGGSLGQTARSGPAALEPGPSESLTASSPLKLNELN
Sequence of CysLT1 (Q9Y271 whole entry): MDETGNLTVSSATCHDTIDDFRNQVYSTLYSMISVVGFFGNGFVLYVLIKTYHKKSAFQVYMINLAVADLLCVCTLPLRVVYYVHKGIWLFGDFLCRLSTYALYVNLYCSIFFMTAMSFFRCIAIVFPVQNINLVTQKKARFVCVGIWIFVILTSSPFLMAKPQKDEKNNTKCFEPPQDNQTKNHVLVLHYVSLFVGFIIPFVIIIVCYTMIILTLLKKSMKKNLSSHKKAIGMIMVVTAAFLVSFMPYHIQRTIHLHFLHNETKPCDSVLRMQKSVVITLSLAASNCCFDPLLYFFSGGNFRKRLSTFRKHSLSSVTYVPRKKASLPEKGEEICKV

## Cc1ccc(-n2nc(C(C)(C)C)cc2NC(=O)Nc2ccc(OCCN3CCOCC3)c3ccccc23)cc1 [BIRB0796]
GnRH/LHRH
  inhibition at 10 µM: -20.5%
PTH1
  inhibition at 10 µM: 0%
FPR1
  inhibition at 10 µM: -4.5%
DP
  inhibition at 10 µM: 12.5%
H1
  inhibition at 10 µM: -1.5%
CB2
  inhibition at 10 µM: 80%
OPRM1
  inhibition at 10 µM: -2.5%
CRF1
  inhibition at 10 µM: 13%
D1
  inhibition at 10 µM: 23%
5-HT2B
  inhibition at 10 µM: 18.5%
Beta 1
  inhibition at 10 µM: -6%
H2
  inhibition at 10 µM: -5.5%
OPRD1
  inhibition at 10 µM: 8.5%
S1P3
  inhibition at 10 µM: -1.5%
OPRK1
  inhibition at 10 µM: -19%
PRP
  inhibition at 10 µM: 3%
A1
  inhibition at 10 µM: 19.5%
TSH
  inhibition at 10 µM: -4%
PAF
  inhibition at 10 µM: 19.5%
AT1
  inhibition at 10 µM: -2.5%
BB2
  inhibition at 10 µM: 0%
Alpha1A
  inhibition at 10 µM: 6%
Trypsin-mediated PARs
  Percentage inhibition: 9.0%
CGRP1
  inhibition at 10 µM: 0%
5-HT2C
  inhibition at 10 µM: 5.5%
C5aR
  inhibition at 10 µM: -5.5%
V1A
  inhibition at 10 µM: 2%
TP
  inhibition at 10 µM: 32%
Motilin receptor
  inhibition at 10 µM: 94.5%
M2
  inhibition at 10 µM: 34.5%
M1
  inhibition at 10 µM: 46.5%
CB1
  inhibition at 10 µM: 9%
NTR1
  inhibition at 10 µM: -12%
BLT1
  inhibition at 10 µM: 8.5%
UT/GPR14
  inhibition at 10 µM: 18.5%
EP3
  inhibition at 10 µM: 7.5%
H3
  inhibition at 10 µM: 91.5%
P2Y1
  inhibition at 10 µM: 10.5%
D2L
  inhibition at 10 µM: 53.5%
Y2
  inhibition at 10 µM: -13.5%
A3
  inhibition at 10 µM: 20.5%
ETB
  inhibition at 10 µM: 11%
CX3CR1
  inhibition at 10 µM: -12%
NK1
  inhibition at 10 µM: 12%
EP2
  inhibition at 10 µM: 2.5%
PK1
  inhibition at 10 µM: -6.5%
Beta 2
  inhibition at 10 µM: -9.5%
Alpha1D
  inhibition at 10 µM: 3.5%
CysLT1
  inhibition at 10 µM: 2%
OT
  inhibition at 10 µM: 12.5%
D5
  inhibition at 10 µM: 14%
Alpha2A
  inhibition at 10 µM: -4%
OX1
  inhibition at 10 µM: 12%
CCK2
  inhibition at 10 µM: 2%
SST4
  inhibition at 10 µM: -5.5%
NK3
  inhibition at 10 µM: 17.5%
MC5
  inhibition at 10 µM: 2%
CCR2B
  inhibition at 10 µM: 0%
IP1
  inhibition at 10 µM: 12.5%
GPR109A
  inhibition at 10 µM: -1%
V2
  inhibition at 10 µM: 1%
GAL1
  inhibition at 10 µM: -1.5%
ETA
  inhibition at 10 µM: -4%
CXCR1
  inhibition at 10 µM: -1.5%
5-HT2A
  inhibition at 10 µM: 99.5%
FP
  inhibition at 10 µM: 20.5%
B2
  inhibition at 10 µM: -4.5%
LPA1
  inhibition at 10 µM: 6.5%
5-HT1A
  inhibition at 10 µM: 31%
VPAC2
  inhibition at 10 µM: -4%
Kv1.5
  inhibition at 10 µM: ≥ 50%
NMU1
  inhibition at 10 µM: 22.5%
CCR1
  inhibition at 10 µM: -6%
PAC1 long isoform
  Percentage inhibition: 3.5%
VPAC1
  inhibition at 10 µM: -2%
M3
  inhibition at 10 µM: 5%
LPA3
  inhibition at 10 µM: 5%
hERG
  inhibition at 10 µM: ≥ 50%

Reference: article PMC3236397 (Frontiers in Pharmacology, 2011)
